Test results published in patent US11098032B2, “Pyran dervatives as CYP11A1 (cytochrome P450 monooxygenase 11A1) inhibitors” (ORION CORPORATION, priority 2016, dated 2021).

Target: T1, CYP11A1 (Homo sapiens, UniProt P05108)
T1 construct: human H295R adrenocortical carcinoma cell line was used as source of enzyme; endogenous in cells; host or cells: H295R human adrenocortical carcinoma cells
T1 sequence (P05108 40-521): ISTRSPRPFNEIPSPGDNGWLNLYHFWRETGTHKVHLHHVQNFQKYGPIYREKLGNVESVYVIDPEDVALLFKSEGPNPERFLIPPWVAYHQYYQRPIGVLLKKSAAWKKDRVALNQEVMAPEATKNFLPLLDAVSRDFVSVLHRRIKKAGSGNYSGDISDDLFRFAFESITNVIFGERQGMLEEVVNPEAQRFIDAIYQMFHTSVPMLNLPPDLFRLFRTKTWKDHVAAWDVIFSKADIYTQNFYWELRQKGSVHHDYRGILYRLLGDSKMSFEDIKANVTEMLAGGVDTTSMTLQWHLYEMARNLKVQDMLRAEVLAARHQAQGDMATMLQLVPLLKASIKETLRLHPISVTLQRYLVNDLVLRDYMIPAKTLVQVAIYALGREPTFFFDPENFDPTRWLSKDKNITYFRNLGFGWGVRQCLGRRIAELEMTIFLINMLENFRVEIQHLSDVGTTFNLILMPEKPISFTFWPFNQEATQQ
Assay: CYP11A1 inhibition: modified isocaproic acid release assay (IARA) in H295R cells
Format: cell-based
Conditions: human H295R adrenocortical carcinoma cells treated three days, 3 nM [24,25-3H]-labelled cholesterol, 1% DMSO, 10 concentrations in duplicates; read-out: IC50 of the test compounds on CYP11A1 inhibition
How it was run: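 Cholesterol side-chain cleavage followed as tritiated isocaproic acid in charcoal-extracted medium, counted by scintillation. Substrate was 3 nM [24,25-3H]-cholesterol on human H295R cells exposed for three days to ten compound concentrations (duplicates, 1% DMSO); IC50 derived.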

SMILES | IC50
O=c1cc(CN2Cc3ccccc3C2)occ1OCC1CCN(S(=O)(=O)C2CC2)CC1 [Compound 187, 5-((1-(Cyclopropylsulfonyl)piperidin-4-yl)methoxy)-2-(isoindolin-2-ylmethyl)-4H-pyran-4-one] | < 150 nM
CCS(=O)(=O)N1CCC(COc2coc(CN3Cc4ccccc4C3)cc2=O)CC1 [Compound 188, 5-((1-(Ethylsulfonyl)piperidin-4-yl)methoxy)-2-(isoindolin-2-ylmethyl)-4H-pyran-4-one] | < 150 nM
CC1(COc2coc(CN3Cc4ccccc4C3)cc2=O)CCN(S(C)(=O)=O)CC1 [Compound 191, 2-(Isoindolin-2-ylmethyl)-5-((4-methyl-1-(methylsulfonyl)piperidin-4-yl)-methoxy)-4H-pyran-4-one] | 150 to 300 nM
CCS(=O)(=O)N1CCC(C)(COc2coc(CN3Cc4ccccc4C3)cc2=O)CC1 [Compound 192, 5-((1-(Ethylsulfonyl)-4-methylpiperidin-4-yl)methoxy)-2-(isoindolin-2-ylmethyl)-4H-pyran-4-one] | < 150 nM
CS(=O)(=O)N1CCC(COc2coc(CN3Cc4ccccc4C3)cc2=O)C(O)C1 (stereo not drawn) [Compound 193, 5-((3-Hydroxy-1-(methylsulfonyl)piperidin-4-yl)methoxy)-2-(isoindolin-2-yl-methyl)-4H-pyran-4-one] | 301 to 2000 nM
Cc1ccc(S(=O)(=O)N=S2(=O)CCC(COc3coc(CN4Cc5ccccc5C4)cc3=O)CC2)cc1 (stereo not drawn) [Compound 194, N-(4-(((6-(Isoindolin-2-ylmethyl)-4-oxo-4H-pyran-3-yl)oxy)methyl)-1-oxido-tetrahydro-2H-thiopyran-1-ylidene)-4-methylbenzenesulfonamide] | 150 to 300 nM
CC(c1cc(=O)c(OCC2CCN(S(C)(=O)=O)CC2)co1)N1Cc2ccccc2C1 (stereo not drawn) [Compound 195] | < 150 nM
O=c1cc(CN2Cc3ccccc3C2)occ1OCC1CCSCC1 [Compound 196, 2-(Isoindolin-2-ylmethyl)-5-((tetrahydro-2H-thiopyran-4-yl)methoxy)-4H-pyran-4-one] | < 150 nM
CC(C)(C)OC(=O)N1CCC(CCOc2coc(CN3Cc4ccccc4C3)cc2=O)CC1 [Compound 197, tert-Butyl 4-(2-((6-(isoindolin-2-ylmethyl)-4-oxo-4H-pyran-3-yl)oxy)ethyl)-piperidine-1-carboxylate] | 301 to 2000 nM
CC(C)(C)OC(=O)N1CC[C@@H](COc2coc(CN3Cc4ccccc4C3)cc2=O)C1 [Compound 199, (R)-tert-Butyl 3-(((6-(isoindolin-2-ylmethyl)-4-oxo-4H-pyran-3-yl)oxy)methyl)-pyrrolidine-1-carboxylate] | 150 to 300 nM
CC(C)(C)OC(=O)N1CC[C@H](COc2coc(CN3Cc4ccccc4C3)cc2=O)C1 [Compound 200, (S)-tert-Butyl 3-(((6-(isoindolin-2-ylmethyl)-4-oxo-4H-pyran-3-yl)oxy)methyl)-pyrrolidine-1-carboxylate] | 150 to 300 nM
CC(C)(C)OC(=O)N1CCC[C@H](COc2coc(CN3Cc4ccccc4C3)cc2=O)C1 [Compound 201, (S)-tert-Butyl 3-(((6-(isoindolin-2-ylmethyl)-4-oxo-4H-pyran-3-yl)oxy)methyl)-piperidine-1-carboxylate] | 301 to 2000 nM
CC(C)(C)OC(=O)N1CCC[C@@H](COc2coc(CN3Cc4ccccc4C3)cc2=O)C1 [Compound 202, (R)-tert-Butyl 3-(((6-(isoindolin-2-ylmethyl)-4-oxo-4H-pyran-3-yl)oxy)methyl)-piperidine-1-carboxylate] | 301 to 2000 nM
CC(C)(C)OC(=O)N1CCC(Oc2coc(CN3Cc4ccccc4C3)cc2=O)CC1 [Compound 203, tert-Butyl 4-((6-(isoindolin-2-ylmethyl)-4-oxo-4H-pyran-3-yl)oxy)piperidine-1-carboxylate] | 301 to 2000 nM
CC(=O)N1CCC(CCOc2coc(CN3Cc4ccccc4C3)cc2=O)CC1 [Compound 206, 5-(2-(1-Acetylpiperidin-4-yl)ethoxy)-2-(isoindolin-2-ylmethyl)-4H-pyran-4-one] | 301 to 2000 nM
CC1(C)c2ccccc2CN1Cc1cc(=O)c(OCC2CCN(S(C)(=O)=O)CC2)co1 [Compound 212, 2-((1,1-Dimethylisoindolin-2-yl)methyl)-5-((1-(methylsulfonyl)piperidin-4-yl)-methoxy)-4H-pyran-4-one] | 301 to 2000 nM
CS(=O)(=O)N1CCC(CCCOc2coc(CN3Cc4ccccc4C3)cc2=O)CC1 [Compound 213, 2-(Isoindolin-2-ylmethyl)-5-(3-(1-(methylsulfonyl)piperidin-4-yl)propoxy)-4H-pyran-4-one] | < 150 nM
O=c1cc(CN2Cc3ccccc3C2)occ1OCCCc1ccncc1 [Compound 214, 2-(Isoindolin-2-ylmethyl)-5-(3-(pyridin-4-yl)propoxy)-4H-pyran-4-one] | 150 to 300 nM
O=C(N1CCCC1)N1CCC(COc2coc(CN3Cc4ccccc4C3)cc2=O)CC1 [Compound 215, 2-(Isoindolin-2-ylmethyl)-5-((1-(pyrrolidine-1-carbonyl)piperidin-4-yl)methoxy)-4H-pyran-4-one] | < 150 nM
O=c1cc(CN2Cc3ccccc3C2)occ1OC[C@H]1CC[C@H](N2CCCS2(=O)=O)CC1 [Compound 216, 5-(((1r,4r)-4-(1,1-Dioxidoisothiazolidin-2-yl)cyclohexyl)methoxy)-2-(isoindolin-2-ylmethyl)-4H-pyran-4-one] | < 150 nM
CN(C)C(=O)C1CCC(COc2coc(CN3Cc4ccccc4C3)cc2=O)CC1 (stereo not drawn) [Compound 217, 4-(((6-(Isoindolin-2-ylmethyl)-4-oxo-4H-pyran-3-yl)oxy)methyl)-N,N-dimethyl-cyclohexane-1-carboxamide] | < 150 nM
CN(C1CCC(COc2coc(CN3Cc4ccccc4C3)cc2=O)CC1)S(C)(=O)=O (stereo not drawn) [Compound 218, N-(4-(((6-(Isoindolin-2-ylmethyl)-4-oxo-4H-pyran-3-yl)oxy)methyl)cyclohexyl)-N-methylmethanesulfonamide] | 150 to 300 nM
CS(=O)(=O)N(C1CCC(COc2coc(CN3Cc4ccccc4C3)cc2=O)CC1)C1CC1 (stereo not drawn) [Compound 219, N-Cyclopropyl-N-(4-(((6-(isoindolin-2-ylmethyl)-4-oxo-4H-pyran-3-yl)oxy)-methyl)cyclohexyl)methanesulfonamide] | < 150 nM

Further lines, results first:

IC50 | SMILES
< 150 nM | CS(=O)(=O)N1CCC(COc2coc(CN3Cc4ccc(F)cc4C3)cc2=O)CC1 [Compound 186, 2-((5-Fluoroisoindolin-2-yl)methyl)-5-((1-(methylsulfonyl)piperidin-4-yl)-methoxy)-4H-pyran-4-one]
< 150 nM | CCS(=O)(=O)N1CCC(COc2coc(CN3Cc4ccc(F)cc4C3)cc2=O)CC1 [Compound 189, 5-((1-(Ethylsulfonyl)piperidin-4-yl)methoxy)-2-((5-fluoroisoindolin-2-yl)methyl)-4H-pyran-4-one]
< 150 nM | O=c1cc(CN2Cc3ccc(F)cc3C2)occ1OCC1CCN(S(=O)(=O)C2CC2)CC1 [Compound 190, 5-((1-(Cyclopropylsulfonyl)piperidin-4-yl)methoxy)-2-((5-fluoroisoindolin-2-yl)methyl)-4H-pyran-4-one]
150 to 300 nM | CS(=O)(=O)N1CCC(CCOc2coc(CN3Cc4ccccc4C3)cc2=O)CC1 [Compound 198, 2-(Isoindolin-2-ylmethyl)-5-(2-(1-(methylsulfonyl)piperidin-4-yl)ethoxy)-4H-pyran-4-one]
< 150 nM | CS(=O)(=O)N1CCC(COc2coc(CN3Cc4ccc(OC(F)(F)F)cc4C3)cc2=O)CC1 [Compound 205, 5-((1-(Methylsulfonyl)piperidin-4-yl)methoxy)-2-((5-(trifluoromethoxy)-isoindolin-2-yl)methyl)-4H-pyran-4-one]
301 to 2000 nM | CS(=O)(=O)N1CCC(COc2coc(CN3Cc4ccc([N+](=O)[O-])cc4C3)cc2=O)CC1 [Compound 207, 5-((1-(Methylsulfonyl)piperidin-4-yl)methoxy)-2-((5-nitroisoindolin-2-yl)methyl)-4H-pyran-4-one]
150 to 300 nM | CSc1ccc2c(c1)CN(Cc1cc(=O)c(OCC3CCN(S(C)(=O)=O)CC3)co1)C2 [Compound 208, 5-((1-(Methylsulfonyl)piperidin-4-yl)methoxy)-2-((5-(methylthio)isoindolin-2-yl)methyl)-4H-pyran-4-one]
150 to 300 nM | CS(=O)(=O)N1CCC(COc2coc(CN3Cc4cc5c(cc4C3)OCO5)cc2=O)CC1 [Compound 209, 2-((5,7-Dihydro-6H-[1,3]dioxolo[4,5-f]isoindol-6-yl)methyl)-5-((1-(methyl-sulfonyl)piperidin-4-yl)methoxy)-4H-pyran-4-one]
150 to 300 nM | CS(=O)(=O)N1CCC(COc2coc(CN3Cc4cc(F)c(F)cc4C3)cc2=O)CC1 [Compound 210, 2-((5,6-Difluoroisoindolin-2-yl)methyl)-5-((1-(methylsulfonyl)piperidin-4-yl)methoxy)-4H-pyran-4-one]
< 150 nM | Cc1ccc2c(c1)CN(Cc1cc(=O)c(OCC3CCN(S(C)(=O)=O)CC3)co1)C2 [Compound 211, 2-((5-Methylisoindolin-2-yl)methyl)-5-((1-(methylsulfonyl)piperidin-4-yl)-methoxy)-4H-pyran-4-one]
